One series deals with T1, H1 (h) (Homo sapiens, UniProt P35367).
T1 construct: CEREP (contract assay)
In words: CEREP panel. It is filed as binding. The following applies: 10 µM.

The next series concerns the target T2, 5-HT1A (h) (Homo sapiens, UniProt P08908).
T2 construct: CEREP (contract assay)
In words: CEREP panel. The series is classed as binding.

The target of the next series is T3, M4 (h) (Homo sapiens, UniProt P08173).
T3 construct: CEREP (contract assay)
In words: CEREP panel. It is filed as binding.

The target of a further series is T4, H3 (h) (Homo sapiens, UniProt Q9Y5N1).
T4 construct: CEREP (contract assay)
In words: CEREP panel. It is filed as binding. The following applies: 10 µM.

A further series concerns the target T5, COX2 (h) (Homo sapiens, UniProt P35354).
T5 construct: CEREP (contract assay)
Put plainly: CEREP panel, enzyme and cell-based assays. It is filed as biochemical. As to conditions: 10 µM.

Another series deals with Cl- channel (GABA-gated). In words: CEREP panel. It is filed as binding. The following applies: 10 µM.
The conditions of series [1]: phosphate buffer pH 6.5, from DMSO stock.
The target of a further series is T6, D2S (h) (Homo sapiens, UniProt P14416).
T6 construct: CEREP (contract assay)
Put plainly: CEREP panel. The series is classed as binding. As to conditions: 10 µM.

Series [2] can be described thus: in vitro. The following applies: human, hepatocytes.
A further series concerns the target T7, dopamine transporter (h) (Homo sapiens, UniProt Q01959).
T7 construct: CEREP (contract assay)
In words: CEREP panel. It is filed as binding.

In a further series the target is T8, MC4 (h) (Homo sapiens, UniProt P32245).
T8 construct: CEREP (contract assay)
In words: CEREP panel. The series is classed as binding. The following applies: for % inhibition MC4 (h): 10 µM.

Another series deals with T9, BZD (peripheral) (Rattus norvegicus, UniProt P16257).
T9 construct: CEREP
Put plainly: CEREP panel. It is filed as binding. As to conditions: for % inhibition BZD (peripheral): 10 µM.

The next series has as its target T10, PAC1 (PACAP) (h) (Homo sapiens, UniProt P41586).
T10 construct: CEREP (contract assay)
T10 sequence (P41586 21-468): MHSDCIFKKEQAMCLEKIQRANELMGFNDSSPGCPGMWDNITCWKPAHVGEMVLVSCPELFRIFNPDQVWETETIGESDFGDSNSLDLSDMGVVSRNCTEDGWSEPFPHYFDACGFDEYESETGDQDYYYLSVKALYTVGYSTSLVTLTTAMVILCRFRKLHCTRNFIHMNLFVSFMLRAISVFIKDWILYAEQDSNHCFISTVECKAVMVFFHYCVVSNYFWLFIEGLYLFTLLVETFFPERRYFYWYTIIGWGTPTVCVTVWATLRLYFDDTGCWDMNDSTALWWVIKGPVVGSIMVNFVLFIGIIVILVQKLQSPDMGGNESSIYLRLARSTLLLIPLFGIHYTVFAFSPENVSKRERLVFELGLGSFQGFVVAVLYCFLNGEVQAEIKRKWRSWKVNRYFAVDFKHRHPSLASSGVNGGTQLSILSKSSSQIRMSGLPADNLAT
In words: CEREP panel. The series is classed as binding. As to conditions: for % inhibition PAC1 (PACAP) (h): 10 µM.

The next series concerns the target T11, hABHD12 (Homo sapiens, UniProt Q8N2K0).
T11 construct: expressed in transfected cells
T11 sequence (Q8N2K0 1-398): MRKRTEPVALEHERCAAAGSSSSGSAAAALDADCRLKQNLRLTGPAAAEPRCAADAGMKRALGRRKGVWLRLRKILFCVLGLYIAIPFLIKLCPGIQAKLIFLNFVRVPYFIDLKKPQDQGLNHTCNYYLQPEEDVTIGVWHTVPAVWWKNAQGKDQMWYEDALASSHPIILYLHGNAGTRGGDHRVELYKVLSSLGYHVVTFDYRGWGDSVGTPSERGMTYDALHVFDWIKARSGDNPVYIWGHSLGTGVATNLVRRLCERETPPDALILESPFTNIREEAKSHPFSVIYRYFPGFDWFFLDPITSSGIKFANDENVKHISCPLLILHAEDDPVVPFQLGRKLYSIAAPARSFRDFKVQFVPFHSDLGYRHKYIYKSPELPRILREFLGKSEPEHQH
In words: ABHD12 activity. The series is classed as biochemical. The following applies: read-out: ABHD12 % inhibition.

A short description of another series: physchem. The following applies: organic solvent or mixture.
The nature of series [3]: in vitro. The following applies: C57BL6, mouse, hepatocytes.
For the next series, the target named is T12, CCK1 (CCKA) (h) (Homo sapiens, UniProt P32238).
T12 construct: CEREP (contract assay)
In words: CEREP panel. The series is classed as binding.

The target in the next series is T13, NTS1 (NT1) (h) (Homo sapiens, UniProt P30989).
T13 construct: CEREP (contract assay)
Put plainly: CEREP panel. It is filed as binding. The following applies: for % inhibition NTS1 (NT1) (h): 10 µM.

The nature of series [4]: Pharmacokinetics, oral administration in mice. It is filed as in vivo, mouse.
The target of the next series is T14, dopamine uptake reporter (Homo sapiens, UniProt Q01959).
T14 construct: CEREP
In words: Dopamine uptake full dose-response (CEREP follow-up).

Series [5] is described as follows: Pharmacokinetics, oral administration in rat. As to conditions: p.o. The series is classed as in vivo.
The next series deals with T15, MC3 (Homo sapiens, UniProt P41968).
T15 construct: CEREP (contract assay)
In words: CEREP panel. It is filed as binding.

For another series, the target named is T16, MC5 (Homo sapiens, UniProt P33032).
T16 construct: CEREP (contract assay)
Put plainly: CEREP panel. It is filed as binding.

The target of the next series is T17, B1 (Homo sapiens, UniProt P46663).
T17 construct: CEREP
In words: CEREP panel. It is filed as binding.

A further series has as its target T18, motilin (Homo sapiens, UniProt O43193).
T18 construct: CEREP (contract assay)
In words: CEREP panel. The series is classed as binding.

In the next series the test system is PR. Put plainly: CEREP panel. It is filed as binding. The following applies: 10 µM.
In another series the target is T19, BLT1 (LTB4) (Homo sapiens, UniProt Q15722).
T19 construct: CEREP
Put plainly: CEREP panel. The series is classed as binding.

The next series deals with T20, C5a (Homo sapiens, UniProt P21730).
T20 construct: CEREP (contract assay)
In words: CEREP panel. It is filed as binding.

A further series deals with T21, A2B (Homo sapiens, UniProt P29275).
T21 construct: CEREP
In words: CEREP panel. It is filed as binding.

For another series, the target named is T22, MC1 (Mus musculus, UniProt Q01727).
T22 construct: CEREP (contract assay)
In words: CEREP panel. The series is classed as binding.

Another series has as its target T23, MCH2 (Homo sapiens, UniProt Q969V1).
T23 construct: CEREP (contract assay)
Put plainly: CEREP panel. It is filed as binding.

The next series addresses T24, MCH1 (Homo sapiens, UniProt Q99705).
T24 construct: CEREP (contract assay)
Put plainly: CEREP panel. The series is classed as binding.

Setting [6] is: male, C57BL/6J or C57BL/6JRj, mouse, plasma, po, 5 mg/kg.

This note sets out measurements from PMC5216056 (Nature Communications, 2017).

In general, inhibition refers to the drop in the measured response relative to a control, in per cent. As a reminder, the hepatocyte CLint is the rate of metabolic loss divided by the concentration. Broadly, the solubility is how much of the substance goes into solution per volume. A word on the AUC(0-inf): it is total exposure, with the tail of the curve extrapolated. A high value points to high exposure. As usually defined, the AUC(0-t) is the area under the concentration-time curve up to a stated or last time point. Low values mean less exposure, high ones more exposure. By half-life is commonly meant the time needed for the level to fall by half in the phase considered. A high value points to slow decline. In general, Cmax refers to the peak of the concentration-time curve. What is called Tmax is the time at which the peak concentration occurs. The IC50 is the concentration that gives 50% inhibition.

Several values for one entry are separate records, joined by “and”; a condition that tells them apart may be missing. Equal entries are not always repeated.

T13 sequence (P30989 whole entry): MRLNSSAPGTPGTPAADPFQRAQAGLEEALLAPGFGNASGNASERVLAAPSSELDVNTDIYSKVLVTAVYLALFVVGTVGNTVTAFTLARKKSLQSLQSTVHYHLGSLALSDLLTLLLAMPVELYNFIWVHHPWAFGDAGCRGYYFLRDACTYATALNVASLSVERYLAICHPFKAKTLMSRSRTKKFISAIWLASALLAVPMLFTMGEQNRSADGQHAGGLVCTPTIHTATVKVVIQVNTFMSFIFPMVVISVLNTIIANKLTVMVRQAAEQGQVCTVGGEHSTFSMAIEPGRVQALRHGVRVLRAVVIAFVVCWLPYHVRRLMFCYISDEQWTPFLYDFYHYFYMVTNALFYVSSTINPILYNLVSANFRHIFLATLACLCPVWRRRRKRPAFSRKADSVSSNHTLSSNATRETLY
T8 sequence (P32245 whole entry): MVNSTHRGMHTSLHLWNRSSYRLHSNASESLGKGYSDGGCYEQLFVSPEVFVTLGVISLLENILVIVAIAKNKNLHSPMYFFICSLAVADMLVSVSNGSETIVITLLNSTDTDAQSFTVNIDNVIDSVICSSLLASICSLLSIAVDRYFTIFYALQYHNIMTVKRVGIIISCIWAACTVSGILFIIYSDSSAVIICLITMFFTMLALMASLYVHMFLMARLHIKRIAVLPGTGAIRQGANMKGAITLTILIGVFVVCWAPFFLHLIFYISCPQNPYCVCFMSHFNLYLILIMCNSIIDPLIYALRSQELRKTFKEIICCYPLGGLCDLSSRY
T9 sequence (P16257 whole entry): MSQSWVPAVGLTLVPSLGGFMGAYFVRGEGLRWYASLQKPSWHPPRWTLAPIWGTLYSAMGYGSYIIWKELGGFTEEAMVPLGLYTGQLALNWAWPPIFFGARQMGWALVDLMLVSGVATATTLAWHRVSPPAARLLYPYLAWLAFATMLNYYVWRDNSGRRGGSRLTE
T3 sequence (P08173 whole entry): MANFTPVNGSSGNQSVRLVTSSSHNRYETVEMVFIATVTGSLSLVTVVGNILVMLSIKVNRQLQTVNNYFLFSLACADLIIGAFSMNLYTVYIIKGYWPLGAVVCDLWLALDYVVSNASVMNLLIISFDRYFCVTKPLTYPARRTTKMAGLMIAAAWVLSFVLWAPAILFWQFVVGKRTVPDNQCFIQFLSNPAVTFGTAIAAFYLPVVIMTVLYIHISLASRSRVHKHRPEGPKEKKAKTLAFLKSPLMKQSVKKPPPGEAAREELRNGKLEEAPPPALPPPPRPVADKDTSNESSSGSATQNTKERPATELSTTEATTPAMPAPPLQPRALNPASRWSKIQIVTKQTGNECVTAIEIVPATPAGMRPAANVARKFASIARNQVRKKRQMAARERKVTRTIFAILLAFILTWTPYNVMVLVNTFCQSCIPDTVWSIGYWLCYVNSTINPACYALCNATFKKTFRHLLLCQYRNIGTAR
T5 sequence (P35354 18-604): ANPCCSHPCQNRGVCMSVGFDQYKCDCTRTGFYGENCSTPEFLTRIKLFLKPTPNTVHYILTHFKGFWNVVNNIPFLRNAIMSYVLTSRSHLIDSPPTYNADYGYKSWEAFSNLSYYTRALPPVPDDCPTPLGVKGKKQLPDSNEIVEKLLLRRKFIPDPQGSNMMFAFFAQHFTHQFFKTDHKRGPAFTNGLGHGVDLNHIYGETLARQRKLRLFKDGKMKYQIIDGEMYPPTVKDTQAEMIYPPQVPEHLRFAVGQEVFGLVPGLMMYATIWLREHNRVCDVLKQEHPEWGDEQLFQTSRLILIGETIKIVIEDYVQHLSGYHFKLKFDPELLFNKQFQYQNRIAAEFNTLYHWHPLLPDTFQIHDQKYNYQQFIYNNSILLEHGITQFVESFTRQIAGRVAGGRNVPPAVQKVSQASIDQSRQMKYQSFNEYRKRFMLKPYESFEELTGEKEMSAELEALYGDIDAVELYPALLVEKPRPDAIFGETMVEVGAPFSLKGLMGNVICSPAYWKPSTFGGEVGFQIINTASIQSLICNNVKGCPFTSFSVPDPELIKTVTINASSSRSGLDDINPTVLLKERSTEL
T2 sequence (P08908 whole entry): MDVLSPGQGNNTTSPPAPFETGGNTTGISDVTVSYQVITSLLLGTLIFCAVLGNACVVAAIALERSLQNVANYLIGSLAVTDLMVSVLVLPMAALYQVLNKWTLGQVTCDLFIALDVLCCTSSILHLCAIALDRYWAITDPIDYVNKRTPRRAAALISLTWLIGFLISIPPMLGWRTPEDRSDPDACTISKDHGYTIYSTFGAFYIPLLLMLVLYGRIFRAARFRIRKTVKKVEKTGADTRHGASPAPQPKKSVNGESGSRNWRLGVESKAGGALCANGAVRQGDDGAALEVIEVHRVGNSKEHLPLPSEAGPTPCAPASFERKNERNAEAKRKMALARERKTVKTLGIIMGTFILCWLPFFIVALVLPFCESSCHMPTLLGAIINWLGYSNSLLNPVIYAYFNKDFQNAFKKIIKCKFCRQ
T1 sequence (P35367 whole entry): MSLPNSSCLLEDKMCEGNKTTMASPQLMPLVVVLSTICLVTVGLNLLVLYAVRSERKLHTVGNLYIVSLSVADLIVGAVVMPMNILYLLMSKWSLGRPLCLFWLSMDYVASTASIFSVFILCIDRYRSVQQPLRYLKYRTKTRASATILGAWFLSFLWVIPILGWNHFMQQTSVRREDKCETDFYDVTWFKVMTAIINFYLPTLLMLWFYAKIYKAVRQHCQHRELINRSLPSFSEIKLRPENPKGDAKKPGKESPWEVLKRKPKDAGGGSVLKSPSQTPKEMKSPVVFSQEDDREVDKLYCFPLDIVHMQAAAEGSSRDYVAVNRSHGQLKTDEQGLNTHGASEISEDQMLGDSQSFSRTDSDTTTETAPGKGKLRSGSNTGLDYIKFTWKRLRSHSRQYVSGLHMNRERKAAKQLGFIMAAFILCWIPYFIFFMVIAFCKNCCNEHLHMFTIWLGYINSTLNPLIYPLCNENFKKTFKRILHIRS
T12 sequence (P32238 whole entry): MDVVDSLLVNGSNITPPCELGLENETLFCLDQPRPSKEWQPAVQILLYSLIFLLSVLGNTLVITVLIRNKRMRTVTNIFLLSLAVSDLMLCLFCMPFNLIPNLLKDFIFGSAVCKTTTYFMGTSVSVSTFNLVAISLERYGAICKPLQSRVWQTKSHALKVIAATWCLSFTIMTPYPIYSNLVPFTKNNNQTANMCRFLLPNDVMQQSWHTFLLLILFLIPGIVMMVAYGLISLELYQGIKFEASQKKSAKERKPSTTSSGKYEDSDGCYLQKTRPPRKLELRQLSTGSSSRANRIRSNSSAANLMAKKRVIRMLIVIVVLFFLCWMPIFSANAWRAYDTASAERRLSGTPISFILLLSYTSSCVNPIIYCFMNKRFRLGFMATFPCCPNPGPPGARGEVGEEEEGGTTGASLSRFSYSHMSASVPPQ
T24 sequence (Q99705 whole entry): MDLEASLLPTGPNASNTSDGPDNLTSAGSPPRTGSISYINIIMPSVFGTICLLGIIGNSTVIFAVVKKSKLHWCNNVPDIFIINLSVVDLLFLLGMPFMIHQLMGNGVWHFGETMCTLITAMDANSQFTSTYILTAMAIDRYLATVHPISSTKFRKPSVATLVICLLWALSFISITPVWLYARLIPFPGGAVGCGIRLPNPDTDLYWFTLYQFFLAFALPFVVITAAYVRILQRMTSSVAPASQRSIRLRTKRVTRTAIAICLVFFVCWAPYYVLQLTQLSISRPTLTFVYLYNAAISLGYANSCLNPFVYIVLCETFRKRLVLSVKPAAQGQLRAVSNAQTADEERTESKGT
T17 sequence (P46663 whole entry): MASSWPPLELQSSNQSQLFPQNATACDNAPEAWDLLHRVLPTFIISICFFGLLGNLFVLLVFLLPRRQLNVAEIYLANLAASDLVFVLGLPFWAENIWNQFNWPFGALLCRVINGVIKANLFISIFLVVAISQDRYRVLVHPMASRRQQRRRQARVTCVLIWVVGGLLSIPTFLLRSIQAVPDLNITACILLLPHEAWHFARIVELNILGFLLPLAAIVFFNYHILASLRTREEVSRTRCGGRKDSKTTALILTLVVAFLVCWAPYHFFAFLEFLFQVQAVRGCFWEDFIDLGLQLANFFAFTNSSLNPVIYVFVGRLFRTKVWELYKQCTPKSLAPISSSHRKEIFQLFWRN
T22 sequence (Q01727 whole entry): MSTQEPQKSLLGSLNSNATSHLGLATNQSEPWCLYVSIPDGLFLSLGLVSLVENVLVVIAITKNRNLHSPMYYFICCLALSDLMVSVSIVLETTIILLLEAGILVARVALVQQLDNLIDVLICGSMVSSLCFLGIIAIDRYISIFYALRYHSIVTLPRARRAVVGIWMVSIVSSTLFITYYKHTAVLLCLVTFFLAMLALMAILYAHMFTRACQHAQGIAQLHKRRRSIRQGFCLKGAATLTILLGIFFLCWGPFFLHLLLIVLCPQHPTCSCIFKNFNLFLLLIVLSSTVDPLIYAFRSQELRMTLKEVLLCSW
T6 sequence (P14416 1-414 isoform P14416-2): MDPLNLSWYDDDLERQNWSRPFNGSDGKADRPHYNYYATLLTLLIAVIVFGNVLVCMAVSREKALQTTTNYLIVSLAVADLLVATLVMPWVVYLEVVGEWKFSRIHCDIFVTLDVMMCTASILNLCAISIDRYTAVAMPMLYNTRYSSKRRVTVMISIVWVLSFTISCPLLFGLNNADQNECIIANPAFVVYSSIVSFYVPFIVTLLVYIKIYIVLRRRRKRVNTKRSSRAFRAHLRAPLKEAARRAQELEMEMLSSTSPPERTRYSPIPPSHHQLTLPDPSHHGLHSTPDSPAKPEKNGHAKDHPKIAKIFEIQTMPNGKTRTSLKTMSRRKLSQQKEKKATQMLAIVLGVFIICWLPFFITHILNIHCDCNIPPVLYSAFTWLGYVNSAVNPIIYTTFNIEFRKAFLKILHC

For `CN1CCCC[C@H]1Cn1cc(C(=O)c2cc([N+](=O)[O-])ccc2I)c2ccccc21` [(S)-AM1241], the “Plasma protein binding human” value was determined as 0.5 %free. On H1 (h), the “% inhibition H1 (h)” value is reported as 78%. Besides, the “% inhibition 5-HT1A (h)” value on 5-HT1A (h) (10 µM) turned out to be 74%. Further, the “% inhibition M4 (h)” value at M4 (h) (10 µM) amounted to 74%. The “% inhibition H3 (h)” value at H3 (h) is 87%.

On to `COc1ccc(C(=O)c2c(C)n(CCN3CCOCC3)c3cc(I)ccc23)cc1` [AM630], for which the “% inhibition COX2 (h)” value on COX2 (h) stood at 96%. Further, the “% inhibition Cl- channel (GABA-gated)” value in the series on Cl- channel (GABA-gated) is listed as 87%.

For `CCCCCCC(C)(C)c1ccc([C@@H]2C[C@H](O)CC[C@H]2CCCO)c(O)c1` [CP55940], the figures for the inhibition at 10 µM at 5-HT1A (h) and on M4 (h) were 92% and 55%, respectively. The Kinetic solubility result in series [1] is reported as “soluble”.

Turning to `Cc1ccc2c(c1)Cc1c(C(=O)NN3CCCCC3)nn(-c3ccc(Cl)cc3Cl)c1-2` [Gp-1a], at D2S (h), the “% inhibition D2S (h)” value was 53%.

Turning to `CCCCCCC(C)(C)c1cc(OC)c([C@@H]2C=C(CO)[C@@H]3C[C@H]2C3(C)C)c(OC)c1` [HU308], the results for the intrinsic clearance (hepatocyte CLint) in the series “in vitro [2]” and in the series “in vitro [3]” were 8.3 µL/min/1e6 cells and 4.7 µL/min/1e6 cells, respectively. Moreover, the inhibition at 10 µM against dopamine transporter (h) was 71%; at MC4 (h) (read-out: % inhibition MC4 (h)), 1%; at BZD (peripheral) (read-out: % inhibition BZD (peripheral)) it was 12%; at PAC1 (PACAP) (h) (read-out: % inhibition PAC1 (PACAP) (h)), -3%; against CCK1 (CCKA) (h) it was 75%; at NTS1 (NT1) (h) (read-out: % inhibition NTS1 (NT1) (h)), -23%. Besides, the inhibition at 5 µM on hABHD12 was less than 25%. Also, in “physchem”, the solubility is 2.06 µg/mL and 5 µM. In [4] (setting [6]), this compound returned an AUC(0-inf) of 298 ng·h/mL. This compound showed an AUC(0-t) in [4] (setting [6]) of 253 ng·h/mL. This compound also gave a half-life in [4] (setting [6]) of 198 min. Besides, the peak concentration (Cmax) in series [4] (male, C57BL/6J or C57BL/6JRj, mouse, plasma, po, 5 mg/kg, p.o., read-out: Cmax) worked out at 201 ng/mL. For the same compound, in series [4] (male, C57BL/6J or C57BL/6JRj, mouse, plasma, po, 5 mg/kg, p.o., read-out: Tmax), the Tmax came out at 30 min. In addition, the AUCinf/dose in series [4] (p.o.) came to 59.7 kg·ng·h/mL/mg.

As for `CCCCCCC(C)(C)c1cc(OC)c(C2=C[C@H]3CC[C@]2(CO)C3(C)C)c(OC)c1` [HU910], the “Plasma protein binding human” value amounted to 1.8 %free. The “% inhibition MC4 (h)” value at MC4 (h) is 13%. Also, the “% inhibition BZD (peripheral)” value at BZD (peripheral) is listed as -11%. Besides, the “% inhibition PAC1 (PACAP) (h)” value on PAC1 (PACAP) (h) came to 0%. At dopamine uptake reporter, this compound showed an IC50 of 1400 nM. Besides, the “% inhibition NTS1 (NT1) (h)” value on NTS1 (NT1) (h) is -19%. In series [4] (p.o.), this compound gave an AUCinf of 904 ng·h/mL, an AUCinf/dose of 301 kg·ng·h/mL/mg, an AUClast of 895 ng·h/mL and a Cmax of 495 ng/mL. For the same compound, in [4] (p.o.), the T1/2 came out at 5.2 h and the Tmax was 60 min.

As to `CCCC(C)(C)c1ccc2c(c1)OC(C)(C)[C@@H]1CC=C(C)C[C@@H]21` [JWH133], the “% inhibition MC4 (h)” value on MC4 (h) was -10%. Moreover, in series [5], the AUCinf/dose came out at 583 kg·ng·h/mL/mg, the AUClast was 3330 ng·h/mL and the T1/2 is listed as 2.7 h. In addition, in [5] (6.0 mg/kg), the Cmax was determined as 2070 ng/mL and the Tmax is 1.1 h. On BZD (peripheral), the “% inhibition BZD (peripheral)” value is -1%. At PAC1 (PACAP) (h), the “% inhibition PAC1 (PACAP) (h)” value is on record as 12%. Besides, on NTS1 (NT1) (h), the “% inhibition NTS1 (NT1) (h)” value was 0%.

For `Cc1c(C(=O)NN2CCCCC2)nn(-c2ccc(Cl)cc2Cl)c1-c1ccc(Cl)cc1` [SR141716A], the inhibition at 10 µM on MC3 was 53%; against MC5, 39%; against B1, -3%; against motilin it was 25%; on BLT1 (LTB4), 14%; against C5a, 2%. Also, the inhibition at 10 µM against A2B was -7%; against MC1, 10%; on MCH2, -3%; at MCH1, -12%. Also, the hepatocyte CLint in the series “in vitro [2]” is 5.7 µL/min/1e6 cells; in “in vitro [3]”, 65 µL/min/1e6 cells. In the series “physchem”, the solubility is 1.23 µg/mL and 2.7 µM. For the same compound, the “% inhibition Cl- channel (GABA-gated)” value with Cl- channel (GABA-gated) turned out to be 83%. Moreover, the “% inhibition PR” value with PR stood at 12%.

For the compound `Cc1c(C(=O)c2cccc3ccccc23)c2cccc3c2n1[C@H](CN1CCOCC1)CO3` [WIN55212-2], the “% inhibition COX2 (h)” value on COX2 (h) came to 50%.
